Experimental data as given in patent US9354225B2 (priority 2009, dated 2016).
Where two headings read alike, the source gives them in different places.

Tested on: PrPsc signal in buffy coat (scrapie blood leukocytes)
Format: cell-based, sheep
Conditions: for PrPsc signal from the buffy coat (OD): additive 5 mM final in whole blood at collection, stored 24 h at 4° C. or room temperature; for preservation of the PrPsc harbored in the buffy coat of blood: scrapie sheep of both ARQ/ARQ and VRQ/VRQ genotypes, additive in blood, stored for at least 24 h
[1] = pre-clinical scrapie sheep #1 (ARQ/ARQ), FIG. 1
[2] = pre-clinical scrapie sheep #2 (ARQ/ARQ), FIG. 2

| Compound | percentage loss of PrPsc signal relative to sample processed immediately | PrPsc signal from the buffy coat (OD) [1] | PrPsc signal from the buffy coat (OD) [2] | detection signal in buffy coat fractions of blood samples (scrapie animals, samples processed 24 hours post-collection) | preservation of the PrPsc harbored in the buffy coat of blood |
| --- | --- | --- | --- | --- | --- |
| oxidized L-glutathione | lack of effect |  |  |  |  |
| N[C@@H](CCC(=O)N[C@@H](CS)C(=O)NCC(=O)O)C(=O)O [L-glutathione (reduced)] |  | preserve the PrPsc signal | preserve the PrPsc signal | can preserve the detection signal | allow for the preservation of the PrPsc |
| O=C(O)CN(CCOCCOCCN(CC(=O)O)CC(=O)O)CC(=O)O [EGTA, ethylene glycol tetraacetic acid] |  | preserve the PrPsc signal | preserve the PrPsc signal |  | allow for the preservation of the PrPsc |
